Test results: patent publication US9822344B2, “Method for culturing pluripotent stem cells” (OSAKA UNIVERSITY, priority 2012, dated 2017)

What was measured:
Assay type in all cases: cell-based, human
iPS cells: Tic (Np 39) [1] = experiment: Influences of feeder cells on iPS cells: Rac-1 inhibitor added in culture on MEF feeder cells; conditions: Rac-1 inhibitor 50, 100, or 150 μM added at day 3, outer edge part without inhibitor
Protocol: On feeder cells, iPS cells were seeded, and the culture medium was exchanged with a maintenance medium every 24 hours until day 7. After the culture, the expression of Oct3/4 of the cultured cells was confirmed by immunocytostaining, and DAPI staining was performed. The used cells and media, as well as the culture conditions are as follows.
iPS cells: Repro Stem (trade name, manufactured by ReproCELL J, Inc.), 5 ng/mL FGF-2
Micrographs obtained are illustrated in FIG. 17.
Next, cells were cultured and observed in the same manners as those described above except that a Rac-1 inhibitor (trade name: NSC23766, Calbiochem brand), which is a migration inhibitor, was added at 50, 100, or 150 μM at three days after the start of the culture (day 3). The obtained micrographs are illustrated in FIG. 17.
Dilution of Rac-1 inhibitor: the Rac-1 inhibitor was diluted by using a medium (Repro Stem) (final concentration: 50 or 100 μM).
Further, bFGF (trade name, manufactured by ReproCELL, Inc., final concentration 5 ng/ml) was added thereto, and the Rac-1 inhibitor thus diluted was added to iPS cells.

iPS cells = experiment: Rac-1 inhibitor added in culture on SNL feeder cells; conditions: Rac-1 inhibitor 50 or 100 μM added at day 3, same as without inhibitor
Protocol: Culture was performed by using SNL feeder cells as the feeder cells and adding the Rac-1 inhibitor (50 or 100 μM) at three days after the culture start (day 3).

iPS cells: Tic (Np 39) [2] = experiment: Influences of feeder-free culture on iPS cells: Rac-1 inhibitor added; conditions: Rac-1 inhibitor 100 or 150 μM at day 3 (FIG. 19: 150 μM), Synthemax Surface
Protocol: Synthemax Surface (trade name, manufactured by Corning Inc.) was used as a culture surface, and iPS cells were seeded thereover. The culture medium was exchanged with a maintenance medium every 24 hours until day 7. After the culture, the expression of Oct3/4 of the cultured cells was confirmed by immunocytostaining, and DAPI staining was performed. The used cells and media, as well as the culture conditions are as follows.
mTeSR (Trade Mark) 1 medium (trade name, manufactured by STEMCELL, Technologies)
Next, cells were cultured and observed in the same manner as those described above except that the Rac-1 inhibitor was added at 100 or 150 μM at three days after the start of the culture (day 3). Micrographs obtained are illustrated in FIG. 19. FIG. 19 illustrates micrographs obtained in the case where the Rac-1 inhibitor was 150 μM.

For `CCN(CC)CCCC(C)Nc1nc(C)cc(Nc2ccc3nc(C)cc(N)c3c2)n1` (racemic) [Rac-1 inhibitor], the “Part of the colony where deviated cells emerge” value (iPS cells: Tic (Np 39) [1]) was “emerge in the center part of the colony”, the “Part of the colony where deviated cells grew” value (iPS cells) was “Deviated cells grew in the center part of a colony” and the “Part of the colony where deviated cells emerge” value (iPS cells: Tic (Np 39) [2]) was “allowed deviated cells to emerge in the center part of a colony”.
